“Also recorded” adds a separate entry of the source.

The record followed here is US20250312416A1, “METHOD AND PHARMACEUTICAL COMPOSITION FOR CARTILAGE REGENERATION” (FAR EASTERN MEMORIAL HOSPITAL, priority 2024, published 2025).

Test [1] has as its system clinical-grade ADSCs. Kind of test: Real-time PCR of chondrogenic genes in ADSCs. The test is classed as cell-based, human. The note with it: for expression of chondrogenic genes (SOX9, COL2A1, COMP, ACAN, ITGB1, CXCL14, CXCR4): alanine-substituted variants, 10 ng one-day treatment, day 7, relative to untreated control ADSCs. The procedure: Real-time PCR analysis was conducted on day 7 for CXCL12/CXCL14 peptides treated ADSCs, evaluating the expression of COMP, SOX9, COL2A1, ACAN, ITGB1, and SOSTDC1 genes. Cells were harvested, and RNA extraction was performed using a LightCycler® (Roche Applied Science). The fold change in gene expression on the y-axis was calculated relative to the same gene expression in untreated chondrocytes. Statistical analysis was conducted using one-way ANOVA. Significance levels are denoted as follows: * p<0.05, ** p<0.01, *** p<0.001, and **** p<0.0001 for comparisons between PBS treatments and the untreated group.
Real-time PCR analysis was performed on day 7 for ADSCs treated with CXCR4 agonists, assessing the expression of COMP, SOX9, COL2A1, ACAN, ITGB1, CXCL14, and SOSTIC1 genes. Cellular harvest, RNA extraction, and gene expression quantification were conducted using a LightCycler® (Roche Applied Science). The fold change in gene expression on the y-axis was calculated relative to the same gene expression in untreated chondrocytes. Statistical analysis was executed through one-way ANOVA. Significance levels are represented as follows: * p<0.05, ** p<0.01, *** p<0.001, and **** p<0.0001, indicating the significance of comparisons between PBS treatments and the untreated group.
(§1) Alcian blue staining was used to assess the chondrogenic differentiation of ADSC pellets. […] Treatment with CXCL14-PM1, CXCL14-PM2, CXCL14-PM3, and CXCR4-PM1 was sufficient to enhance the expression of chondrogenic genes in ADSCs. On day 7, real-time PCR was performed to analyze the expression of key chondrogenic markers, including SOX9, COL2A1, COMP, ACAN, ITGB1, CXCL14, and CXCR4, in ADSCs treated with these modified peptides. ADSCs were exposed to distinct peptide modifications derived from CXCL12, CXCL14, and CXCR4 at a concentration of 10 ng for a one-day treatment, after which the medium was replaced with fresh peptide-free medium. At the end of the treatment period, RNA was extracted to evaluate the expression levels of chondrogenesis-related cytokine genes. Gene expression quantification was performed using a LightCycler system (Roche Applied Science), and fold changes were calculated relative to untreated control ADSCs. […] FIG. 16(D) provides a summary of the results for alanine substitution with positively or negatively charged amino acids in CXCL12, CXCL14, and CXCR4 peptides.
ADSCs were treated with CXCL14-P, CXCL14-P1, or CXCL14-P2, respectively, at a concentration of 10 ng for 24 hours, after which the medium was replaced with fresh peptide-free medium. On day 7, total RNA was extracted, and real-time PCR analysis was performed to assess the expression levels of key chondrogenic markers, including ACAN, COL2A1, SOX9, and COMP. Gene expression levels were quantified using a LightCycler system (Roche Applied Science), with fold changes calculated relative to untreated control ADSCs. […] Immunofluorescence staining was performed to detect Collagen Type II, SOX9, COMP, and nuclei (Hoechst 33342) in 3D ADSC spheroids (middle panel). […]
Human IPFP-MSCs and ADSCs were expanded in Dulbecco's Modified Eagle's Medium (DMEM, Gibco, cat. no 2145484) with 10% FBS under a 37° C., 5% CO2 atmosphere. MSCs collected and cell extractions were determined gene expression levels of cytokines and chondrogenic markers using a LightCycler® (Roche Applied Science). The fold change in gene expression on the y-axis was calculated based on untreated cell gene expression.
(In general: Quantitative PCR measures a nucleic acid by following its amplification.)

The test system of test [2] is clinical-grade ADSCs. Put plainly: Alcian blue staining of chondrogenic pellets (GAG), ADSCs. Format: cell-based, human. The note with it: for GAG deposition (Alcian blue): day 7, CXCL14 variants vs CXCL14-P, CXCR4-PM1 vs control. As for the experimental part: The chondrogenic differentiation of pellets containing clinical-grade ADSCs was assessed through Alcian blue staining.
The chondrogenic differentiation of pellets containing clinical-grade ADSCs was evaluated using Alcian blue staining.
as §1
To assess differentiation capacity, single-cell suspensions from cultured IPFP-MSCs and ADSCs were cultivated in chondrogenic medium. Alcian Blue staining was performed on day 7 to evaluate chondrogenic differentiation. The chondrogenic differentiation test was measured gene expressions of ACAN, COL2A1, SOX9, COMP, ITGB1, CXCL14 and SOSTDC1.

In test [3] the test system is ADSC spheroids. Put plainly: Immunofluorescence / confocal microscopy of chondrogenic proteins in ADSC spheroids. The test is classed as cell-based, human. To be noted: ADSC spheroids, 7 days. As for the experimental part: Both side views (observed in the x and z plane) and bottom views (observed in the […]) of the images are provided. The scale bar is set at 500 μm.
ADSCs were treated with CXCL14-P, CXCL14-P1, or CXCL14-P2, respectively, at a concentration of 10 ng for 24 hours, after which the medium was replaced with fresh peptide-free medium. On day 7, total RNA was extracted, and real-time PCR analysis was performed to assess the expression levels of key chondrogenic markers, including ACAN, COL2A1, SOX9, and COMP. Gene expression levels were quantified using a LightCycler system (Roche Applied Science), with fold changes calculated relative to untreated control ADSCs. […] Immunofluorescence staining was performed to detect Collagen Type II, SOX9, COMP, and nuclei (Hoechst 33342) in 3D ADSC spheroids (middle panel).
(FIG. 3). […] Moreover, fluorescence confocal microscopy was employed to detect protein patterns and confirm the levels of SOX9, type II collagen, and aggrecan proteins in ADSC spheroids. […] Finally, to investigate whether the CXCR4 receptor of CXCL12/CXCL14 confers chondrogenic signaling during chondrogenesis, we treated ADSCs with a CXCR4 agonist for 7 days.
Extracellular vesicles (EVs) derived from MSCs hold significant potential for repairing damaged tissues. In this study, we explored whether EVs from ADSCs could effectively enhance chondrogenesis and promote cartilage repair. Immunofluorescence staining was used to assess protein levels of Collagen Type II (green), SOX9 (red), COMP (indigo), and Hoechst 33342 (gray) in 3D ADSC spheroids treated with MSC-EVs derived from CXCL14 peptide-primed ADSCs (CXCL14-P-MSC-EVs) at various time points. […] To further explore the cartilage repair functions of EVs from CXCL14-P-treated ADSCs and the encapsulation of the transcription factor SOX9 within MSCs and purified EVs, we performed in vivo studies.

Test [4] relates to ADSCs. Kind of test: Cellular uptake of fluorescently labeled peptides by fluorescence microscopy. To be noted: 10 ng FITC-conjugated peptide, 37° C. for one day, observed days 1, 3, 7. Format: cell-based, human. The procedure:
Cell-penetrating properties of CXCL14-P and CXCL12-P peptides in ADSCs were analyzed. ADSCs were incubated with 10 ng of FITC-conjugated peptides at 37° C. for one day, followed by refreshing the chondrogenic medium. Peptide internalization was evaluated through fluorescence microscopy on days 1, 3, and 7.
We further explored whether peptides derived from CXCL14 and CXCL12 have the capacity to induce chondrogenesis in MSCs from different sources. To assess their potential, ADSCs were utilized in the study to evaluate the chondrogenic capacity of CXCL14-P and CXCL12-P on day 7 (FIG. 10A). […] FIG. 11 illustrates the cell-penetrating properties of CXCL14-P and CXCL12-P peptides in ADSCs, analyzed at different time points. ADSCs were incubated with FITC-conjugated peptides for one day, after which the chondrogenic medium was refreshed. […] Collectively, these observations indicate that CXCL14-P and CXCL12-P have the ability to stimulate chondrogenesis and further amplify the effects of TGF-β during the chondrogenic process.

In test [5] the test system is UC-MSCs. Kind of test: Alcian blue staining of chondrogenic pellets (GAG), UC-MSCs. Format: cell-based. To be noted: in the presence of TGF-beta. The source says:
(§2) FIG. 13A provides flowchart illustrating the protocol for peptide treatment and sample collection. […] TGF-beta influenced the expression of chondrogenic genes, including ITGB1 and COMP. […] Treatment with CXCL14/CXCL12 peptides increased GAG content during chondrogenesis in the presence of TGF-beta.
(§3) To further validate the role of CXCL14-P and CXCL12-P in regulating chondrogenesis, we compared their effects on another MSC source, umbilical cord-derived mesenchymal stem cells (UC-MSCs). It is important to note that the chondrogenic induction medium contained TGF-β. During chondrogenesis, we observed that the chondrogenic patterns in UC-MSCs were lower than those in ADSCs (FIG. 12). Subsequently, we assessed the chondrogenic potential of UC-MSCs following stimulation with CXCL14-P and CXCL12-P (FIG. 13A). […] Although the expression of chondrogenic genes (FIG. 13B) and GAG content (FIG. 13C) in UC-MSCs was not as pronounced as in ADSCs, the findings confirm that CXCL14-P and CXCL12-P can robustly stimulate chondrogenesis across different MSC sources.

In test [6] the test system is UC-MSCs. Kind of test: Real-time PCR of chondrogenic genes in UC-MSCs. The test is classed as cell-based. The note with it: day 7 of peptide treatment.
Text: as §2, §3

AANVAHLAILN [CXCL12-PM1]: the “expression of chondrogenic marker genes, variant vs unmodified peptide” value in test [1] (CXCL12-P vs CXCL12-PM1, day 7) is “no significant changes”. In addition, the “expression of chondrogenic genes (SOX9, COL2A1, COMP, ACAN, ITGB1, CXCL14, CXCR4)” value in test [1] is on record as “significantly enhance”.
As for “MGYGAALASMTDAYAL (MGYQAALASMTDAYAL) [CXCR4-PM1]”, the “expression of chondrogenic genes (SOX9, COL2A1, COMP, ACAN, ITGB1, CXCL14, CXCR4)” value in test [1] is “significantly enhance”. The “GAG deposition (Alcian blue)” value in test [2] is listed as “increased GAG deposition; also recorded: significantly enhanced”.
For the substance “CXCL12: C-X-C motif chemokine 12, also known as stromal cell-derived factor 1 (SDF-1)”, the “expression of SOX9, type II collagen, and aggrecan” value in test [3] is given as “notably induced”.
As for ITTASVSAYAGQEH [CXCL14-PM1], the “expression of chondrogenic genes (SOX9, COL2A1, COMP, ACAN, ITGB1, CXCL14, CXCR4)” value in test [1] is on record as “significantly enhance”. Besides, in test [2], the “GAG deposition (Alcian blue)” value was “increased GAG deposition; also recorded: enhance GAG contents”.
Take RANVKHLKILN [CXCL12-P]: the “expression of chondrogenic genes (COMP, SOX9, COL2A1, ACAN, ITGB1, SOSTDC1)” value in test [1] (day 7, peptides compared to CXCL12/CXCL14 proteins, listed as CXCL12 peptide) was “significantly upregulated; also recorded: greater ability”. Also, the “expression of chondrogenic genes (COMP, SOX9, COL2A1, ACAN, ITGB1)” value in test [1] (day 7 of treatment with peptide) is on record as “significantly upregulated”. The chondrogenic genes result in test [1] (in the absence of TGF-β) is “evident”. In addition, the “expression of chondrogenic genes ITGB1 and COMP” value in test [1] (in the presence of TGF-β, day 7) was “significantly enhanced”. Also, the “peptide internalization (cell penetration)” value in test [4] is “remain detectable up to day 7”. In addition, the “GAG content (Alcian blue)” value is “increased” in test [5]; “evident” in test [2] (in the absence of TGF-β); “significantly increased” in test [2] (in the presence of TGF-beta); “significantly higher; also recorded: greater ability” in test [2] (peptides compared to CXCL14/CXCL12 proteins, listed as CXCL12 peptide). In addition, in test [6], the “chondrogenic gene expression (COMP, SOX9, COL2A1, ACAN, ITGB1)” value is “significantly upregulated”.
Consider ITTKSVSRYRGQAH [CXCL14-PM2], for which the “expression of chondrogenic genes (SOX9, COL2A1, COMP, ACAN, ITGB1, CXCL14, CXCR4)” value in test [1] is listed as “significantly enhance”. Moreover, the “GAG deposition (Alcian blue)” value in test [2] is “increased GAG deposition; also recorded: enhance GAG contents”.
The matching figures for ITTKSVSRYRGDEH [CXCL14-PM3]: “significantly enhance” and “increased GAG deposition; also recorded: did not significantly alter GAG contents”.
